# Experimental data taken from patent US6355799B1, “Substituted benzene compounds, process for their preparation, and herbicidal and defoliant compositions containing them” (ISK Americas Incorporated, priority 1997, dated 2002).
# What was measured:
# Assay type in all cases: in vivo
# [1] = system: field corn (Zea mays L., var. Dekalb 535, CORN); test: Post-emerge test, crop safety; conditions: phytotoxicity rating 0-100 (0 no damage, 100 complete death), 14 days after application
# Method in brief: (§1)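 Fourteen days after spraying, crop and weed injury was graded visually from 0, no effect, to 100, every plant dead. Test substances were dissolved in acetone and applied at 15–1000 g ai/ha with a flat-fan nozzle. Application was either pre-emergence, one day after sowing, or post-emergence at the 2–3 leaf stage.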
# [2] = system: upland rice (Oryza sp., var. Tebonnet, RICE); test: Post-emerge test, crop safety; conditions: phytotoxicity rating 0-100 (0 no damage, 100 complete death), 14 days after application
# Method in brief: as §1
# [3] = system: ivyleaf morningglory (Ipomoea hederacea, IPOHE); test: Pre-emerge test, greenhouse herbicide activity screening; conditions: pre-emerge, rated 14 days after application, 0 = no damage, 100 = complete death
# Method in brief: as §1
# [4] = system: common ragweed (Ambrosia artemisizfolia L., AMBEL); test: as above; conditions: pre-emerge, rated 14 days after application, 0 = no damage, 100 = complete death
# Method in brief: as §1
# [5] = system: velvetleaf (Abutilon theophrasti, ABUTH); test: as above; conditions: pre-emerge, rated 14 days after application, 0 = no damage, 100 = complete death
# Method in brief: as §1
# [6] = system: lambsquarters (Chenopodium album, CHEAL); test: as above; conditions: pre-emerge, rated 14 days after application, 0 = no damage, 100 = complete death
# Method in brief: as §1
# [7] = system: johnsongrass (Sorghum halepense, SORHA); test: as above; conditions: pre-emerge, rated 14 days after application, 0 = no damage, 100 = complete death
# Method in brief: as §1
# [8] = system: barnyardgrass (Echinochloa crus-galli, ECHCG); test: as above; conditions: pre-emerge, rated 14 days after application, 0 = no damage, 100 = complete death
# Method in brief: as §1
# [9] = system: green foxtail (Setaria viridis, SETVI); test: as above; conditions: pre-emerge, rated 14 days after application, 0 = no damage, 100 = complete death
# Method in brief: as §1
# [10] = system: large crabgrass (Digitaria sanguinalis, DIGSA); test: as above; conditions: pre-emerge, rated 14 days after application, 0 = no damage, 100 = complete death
# Method in brief: as §1
# [11] = system: sicklepod (Cassia obtusifolia, CASOB); test: as above; conditions: pre-emerge, rated 14 days after application, 0 = no damage, 100 = complete death
# Method in brief: as §1
# [12] = system: field corn (Zea mays L., var. Dekalb 535, CORN); test: Pre-emerge test, crop safety; conditions: pre-emerge, rated 14 days after application, 0 = no damage, 100 = complete death
# Method in brief: as §1
# [13] = system: upland rice (Oryza sp., var. Tebonnet, RICE); test: Pre-emerge test, crop safety; conditions: pre-emerge, rated 14 days after application, 0 = no damage, 100 = complete death
# Method in brief: as §1
# [14] = system: ivyleaf morningglory (Ipomoea hederacea, IPOHE); test: Post-emerge test, greenhouse herbicide activity screening; conditions: phytotoxicity rating 0-100 (0 no damage, 100 complete death), 14 days after application
# Method in brief: (§2)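 Applied at 15–1000 g ai/ha from acetone in 187 l/ha spray volume. Post-emergence applications included 0.25% v/v non-ionic surfactant and reached plants sown 8–21 days before. Pre-emergence applications were incorporated by surface watering. Efficacy or crop damage was rated on a 0–100 scale after 14 days.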
# [15] = system: common ragweed (Ambrosia artemisizfolia L., AMBEL); test: as above; conditions: phytotoxicity rating 0-100 (0 no damage, 100 complete death), 14 days after application
# Method in brief: as §2
# [16] = system: velvetleaf (Abutilon theophrasti, ABUTH); test: as above; conditions: phytotoxicity rating 0-100 (0 no damage, 100 complete death), 14 days after application
# Method in brief: as §2
# [17] = system: lambsquarters (Chenopodium album, CHEAL); test: as above; conditions: phytotoxicity rating 0-100 (0 no damage, 100 complete death), 14 days after application
# Method in brief: as §2
# [18] = system: redroot pigweed (Amaranthus retroflexus, AMARE); test: as above; conditions: phytotoxicity rating 0-100 (0 no damage, 100 complete death), 14 days after application
# Method in brief: as §2
# [19] = system: johnsongrass (Sorghum halepense, SORHA); test: as above; conditions: phytotoxicity rating 0-100 (0 no damage, 100 complete death), 14 days after application
# Method in brief: as §2
# [20] = system: barnyardgrass (Echinochloa crus-galli, ECHCG); test: as above; conditions: phytotoxicity rating 0-100 (0 no damage, 100 complete death), 14 days after application
# Method in brief: as §2
# [21] = system: large crabgrass (Digitaria sanguinalis, DIGSA); test: as above; conditions: phytotoxicity rating 0-100 (0 no damage, 100 complete death), 14 days after application
# Method in brief: as §2
# [22] = system: sicklepod (Cassia obtusifolia, CASOB); test: as above; conditions: phytotoxicity rating 0-100 (0 no damage, 100 complete death), 14 days after application
# Method in brief: as §2
# [23] = system: redroot pigweed (Amaranthus retroflexus, AMARE); test: Pre-emerge test, greenhouse herbicide activity screening; conditions: pre-emerge, rated 14 days after application, 0 = no damage, 100 = complete death
# Method in brief: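 Visual ratings on a 0-100 scale (0 no damage, 100 all plants dead) were taken at 14 days after treatment. Rates of 15-1000 g ai/ha in acetone, 187 l/ha, were sprayed onto soil one day after planting (pre-emerge) or onto 2-3 leaf plants with 0.25% v/v surfactant (post-emerge).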
smiles,measurement,setting,value
CCc1ccc(C(=O)Nc2c(OC)c(Cl)cc(F)c2-n2c(=O)cc(C(F)(F)F)n(C)c2=O)cc1 [2-27],Post-emerge Herbicidal Activity CORN (crop damage),[1]; 63 g ai/ha,50
same,Post-emerge Herbicidal Activity CORN (crop damage),[1]; 250 g ai/ha,95
same,Post-emerge Herbicidal Activity RICE (crop damage),[2]; 63 g ai/ha,60
same,Post-emerge Herbicidal Activity RICE (crop damage),[2]; 250 g ai/ha,95
same,"Pre-emerge Herbicidal Activity IPOHE (phytotoxicity rating, scale 0-100)",[3]; 63 g ai/ha,80
same,"Pre-emerge Herbicidal Activity IPOHE (phytotoxicity rating, scale 0-100)",[3]; 250 g ai/ha,100
same,"Pre-emerge Herbicidal Activity AMBEL (phytotoxicity rating, scale 0-100)",[4]; 63 g ai/ha,100
same,"Pre-emerge Herbicidal Activity AMBEL (phytotoxicity rating, scale 0-100)",[4]; 250 g ai/ha,100
same,"Pre-emerge Herbicidal Activity ABUTH (phytotoxicity rating, scale 0-100)",[5]; 63 g ai/ha,100
same,"Pre-emerge Herbicidal Activity ABUTH (phytotoxicity rating, scale 0-100)",[5]; 250 g ai/ha,100
same,"Pre-emerge Herbicidal Activity CHEAL (phytotoxicity rating, scale 0-100)",[6]; 63 g ai/ha,100
same,"Pre-emerge Herbicidal Activity CHEAL (phytotoxicity rating, scale 0-100)",[6]; 250 g ai/ha,100
same,"Pre-emerge Herbicidal Activity SORHA (phytotoxicity rating, scale 0-100)",[7]; 63 g ai/ha,30
same,"Pre-emerge Herbicidal Activity SORHA (phytotoxicity rating, scale 0-100)",[7]; 250 g ai/ha,80
same,"Pre-emerge Herbicidal Activity ECHCG (phytotoxicity rating, scale 0-100)",[8]; 63 g ai/ha,50
same,"Pre-emerge Herbicidal Activity ECHCG (phytotoxicity rating, scale 0-100)",[8]; 250 g ai/ha,100
same,"Pre-emerge Herbicidal Activity SETVI (phytotoxicity rating, scale 0-100)",[9]; 63 g ai/ha,100
same,"Pre-emerge Herbicidal Activity SETVI (phytotoxicity rating, scale 0-100)",[9]; 250 g ai/ha,100
same,"Pre-emerge Herbicidal Activity DIGSA (phytotoxicity rating, scale 0-100)",[10]; 63 g ai/ha,95
same,"Pre-emerge Herbicidal Activity DIGSA (phytotoxicity rating, scale 0-100)",[10]; 250 g ai/ha,100
same,"Pre-emerge Herbicidal Activity CASOB (phytotoxicity rating, scale 0-100)",[11]; 63 g ai/ha,60
same,"Pre-emerge Herbicidal Activity CASOB (phytotoxicity rating, scale 0-100)",[11]; 250 g ai/ha,100
same,"Pre-emerge crop damage CORN (phytotoxicity rating, scale 0-100)",[12]; 63 g ai/ha,20
same,"Pre-emerge crop damage CORN (phytotoxicity rating, scale 0-100)",[12]; 250 g ai/ha,90
same,"Pre-emerge crop damage RICE (phytotoxicity rating, scale 0-100)",[13]; 63 g ai/ha,70
same,"Pre-emerge crop damage RICE (phytotoxicity rating, scale 0-100)",[13]; 250 g ai/ha,90
same,Post-emerge Herbicidal Activity IPOHE,[14]; 63 g ai/ha,90
same,Post-emerge Herbicidal Activity IPOHE,[14]; 250 g ai/ha,100
same,Post-emerge Herbicidal Activity AMBEL,[15]; 63 g ai/ha,60
same,Post-emerge Herbicidal Activity AMBEL,[15]; 250 g ai/ha,90
same,Post-emerge Herbicidal Activity ABUTH,[16]; 63 g ai/ha,100
same,Post-emerge Herbicidal Activity ABUTH,[16]; 250 g ai/ha,100
same,Post-emerge Herbicidal Activity CHEAL,[17]; 63 g ai/ha,90
same,Post-emerge Herbicidal Activity CHEAL,[17]; 250 g ai/ha,100
same,Post-emerge Herbicidal Activity AMARE,[18]; 63 g ai/ha,100
same,Post-emerge Herbicidal Activity AMARE,[18]; 250 g ai/ha,100
same,Post-emerge Herbicidal Activity SORHA,[19]; 63 g ai/ha,20
same,Post-emerge Herbicidal Activity SORHA,[19]; 250 g ai/ha,85
same,Post-emerge Herbicidal Activity ECHCG,[20]; 63 g ai/ha,0
same,Post-emerge Herbicidal Activity ECHCG,[20]; 250 g ai/ha,80
same,Post-emerge Herbicidal Activity DIGSA,[21]; 63 g ai/ha,10
same,Post-emerge Herbicidal Activity DIGSA,[21]; 250 g ai/ha,70
same,Post-emerge Herbicidal Activity CASOB,[22]; 63 g ai/ha,50
same,Post-emerge Herbicidal Activity CASOB,[22]; 250 g ai/ha,90
same,"Pre-emerge Herbicidal Activity AMARE (phytotoxicity rating, scale 0-100)",[23]; 63 g ai/ha,100
same,"Pre-emerge Herbicidal Activity AMARE (phytotoxicity rating, scale 0-100)",[23]; 250 g ai/ha,100
